Data as given in patent US5063222A, “Antiinflammatory dexamethasone 17α-cyclopropanecarboxylates with reduced systemic activity” (SS Pharmaceutical Co., Ltd., priority 1989, dated 1991).

Assays:
human skin = assay: Skin vessel constriction activity (local anti-inflammatory effect on human skin); format: in vivo, human (healthy male subjects); conditions: probit method
Protocol: Skin vessel constriction effects on human skin of the present invention were investigated according to the following method. Dexamethasone 17,21-dipropionate which is known as a very strong anti-inflammatory agent for external application was used as a comparative compound.
Fifteen (15) healthy male subjects who were free from any skin disease anamnesis, such as eczema, dermatosis, or the like, received the test. Test compounds were diluted with 95% ethanol to make 6 sample solutions with different concentrations; highest concentration: 1×10^-2, lowest concentration: 1×10^-7. A strap to which acryl cells (diameter: 12 mm, thickness: 2 mm, height, 3 mm) were fixed was applied to the back of each subject. The test compound solution was then dropped with a pippet, 0.02 ml per drop, according to a key-code allocated at random. After drying by air, the strap was peeled off. The coated area was covered with a polyvinylidene chloride film, of which the periphery was fixed with a strap for the patch test. The period of time during which the covering was applied was 16 hours. The judgment was made according to the following standard four times at 1, 2, 5, and 8 hours after the removal of the film.
++: The coated skin was strongly pale.
+: The coated skin was distinctly pale.
±: The coated skin was slightly pale.
The results were analyzed by the probit method to obtain the ED50 value (≥+) at which the coated area was clearly pale. The results are shown in Table 2, in which the relative value for the compounds of the present invention determined by taking the ED50 value for dexamethasone 17,21-dipropionate as 100 are given in parentheses.

[1] = tested on: carrageenin edema of the right hind paw of rats; assay: Carrageenin paw edema, systemic (subcutaneous, back) administration, edema inhibition ED40; format: in vivo, Wister male rats; conditions: Rattus norvegicus, sc; s.c. into back, 60 min before 1% carrageenin; edema 3 hours after carrageenin
Protocol: (§1) Using Wister male rats weighting 130-150 g, each group consisting of 6 rats, the local selectivity of the anti-inflammatory action was investigated by the systemic and local administration of the compounds of the present invention and comparative compounds.
In the evaluation of systemic administration, a test compound suspended into 1% gum arabic was subcutaneously injected into back of rats at doses of 0.01, 0.03, 0.1, and 0.3 mg/kg (5 ml/kg). After 60 minutes following the administration, 1% carrageenin (0.1 ml) was injecte into the plantar surface of the right hind paw. The paw volume was measured with a plethysmometer before and 3 hours after the carrageenin injection. The value was compared with the corresponding value of the control group, thus obtaining the edema inhibition rate, from which ED40 was determined.

[2] = tested on: carrageenin edema of the paw of rats; assay: Carrageenin paw edema, local (into paw) administration, edema inhibition ED40; local selectivity (A)/(B); format: in vivo, Wister male rats; conditions: ratio of ED40 systemic to ED40 local
Protocol: as §1
For the local administration test, the test compound suspended in 1% carrageenin was subcutaneously injected into a paw in the rats at doses of 0.01, 0.03, and 1.0 μg/paw (0.1 ml/paw). Three hours after the carrageenin injection, the volume of the edema was compared with the corresponding value of the control group, thus obtaining the edema inhibition rate, from which ED40 was determined.
The ratio of the ED40 values thus obtained was taken for the evaluation of the local selectivity. [formula]
The higher the value, the greater is the selectivity.

[3] = 1 hour after removal of film (16 hours covering)
[4] = 2 hours after removal of film (16 hours covering)
[5] = 5 hours after removal of film (16 hours covering)
[6] = 8 hours after removal of film (16 hours covering)

| Compound | ED50 value (≥ +) concentration (human skin; [3]) | ED50 value (≥ +) concentration (human skin; [4]) | ED50 value (≥ +) concentration (human skin; [5]) | ED50 value (≥ +) concentration (human skin; [6]) | ED40 [1] | Local Selectivity (A)/(B) [2] |
| --- | --- | --- | --- | --- | --- | --- |
| CCC(=O)OCC(=O)[C@@]1(OC(=O)CC)[C@H](C)C[C@H]2[C@@H]3CCC4=CC(=O)C=C[C@]4(C)[C@@]3(F)[C@@H](O)C[C@@]21C [dexamethasone-17,21-dipropionate, Dexamethasone 17,21-dipropionate, reference compound] | 5.48 × 10^-4% | 4.11 × 10^-4% | 8.62 × 10^-3% | 3.19 × 10^-2% | – | – |
| C[C@@H]1C[C@H]2[C@@H]3CCC4=CC(=O)C=C[C@]4(C)[C@@]3(F)[C@@H](O)C[C@]2(C)[C@@]1(OC(=O)C1CC1)C(=O)CO [Compound No. 1, 9α-fluoro-11β,17,21-trihydroxy-16α-methylpregna-1,4-diene-3,20-dione 17-cyclopropanecarboxylate] | 1.45 × 10^-4% | 1.19 × 10^-4% | 7.29 × 10^-4% | 1.24 × 10^-2% | 0.28 mg/kg | 3.50 |
| CCCC(=O)OCC(=O)[C@@]1(OC(=O)CCC)[C@H](C)C[C@H]2[C@@H]3CCC4=CC(=O)C=C[C@]4(C)[C@@]3(F)[C@@H](O)C[C@@]21C [dexamethasone-17,21-dibutylate, reference compound] | – | – | – | – | 0.34 mg/kg | 2.00 |
| C[C@@H]1C[C@H]2[C@@H]3CCC4=CC(=O)C=C[C@]4(C)[C@@]3(F)[C@@H](O)C[C@]2(C)[C@@]1(OC(=O)C1CC1)C(=O)COC(=O)C1CC1 [Compound No. 4, 9α-fluoro-11β,17,21-trihydroxy-16α-methylpregna-1,4-diene-3,20-dione 17,21-dicyclopropanecarboxylate] | 5.10 × 10^-4% | 3.17 × 10^-4% | 2.00 × 10^-3% | 1.36 × 10^-2% | 0.83 mg/kg | 3.95 |
| CCCC(=O)O[C@]1(C(=O)CO)[C@H](C)C[C@H]2[C@@H]3CCC4=CC(=O)C=C[C@]4(C)[C@@]3(F)[C@@H](O)C[C@@]21C [dexamethasone-17-butylate, reference compound] | – | – | – | – | 0.18 mg/kg | 0.62 |
